According to US12624018B1, “Inhibitors of RIPK2 and medical uses thereof” (Odyssey Therapeutics, Inc., priority 2022, dated 2026):
Like-named read-outs stand apart in the source and are kept apart here.

Legend:
[1] = molecular target: T1, RIPK2 and XIAP protein-protein interaction (Homo sapiens, UniProt O43353); assay: Inhibition of the interaction of RIPK2 with XIAP (NanoBRET in HEK293T cells); assay type: cell-based; conditions: RIPK2 HaloTag / XIAP NanoLuc, read-out: NanoBRET Scaffolding IC50
T1 construct: the N-terminus of full-length RIPK2 was appended with the HaloTag fusion protein; expressed in transfected cells; host or cells: HEK293T
Procedure, shortened: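 HEK293T cells transiently co-transfected with HaloTag-RIPK2 (N-terminal) and XIAP-NanoLuc (C-terminal) full-length fusions, grown 24 h at 37° C. in Opti-MEM with 4% FBS. Compounds tested as 10-point 3-fold dilutions; NanoBRET ratio taken as 618 nm acceptor over 460 nm donor emission.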

[2] = test system: TNF-alpha secretion in human whole blood; assay: Inhibition of TNF-alpha secretion in human whole blood (IFN-gamma primed, L18-MDP stimulated); assay type: cell-based; conditions: L18-MDP 100 ng/mL, read-out: Human Whole Blood TNFα IC50
Protocol: Materials: Assay medium consisted of RPMI 1640 medium (catalogue number: 11875119) and 10% heat inactivated FBS (Cytvia). U-PLEX Biomarker Assay (cat #K15067L-4) to detect levels of TNF-alpha was purchased from Meso Scale Discovery. Heparinized whole blood from healthy donors/volunteers was obtained through Research Blood Components, LLC.
Test compounds were prepared into a 10 mM DMSO solution and serially diluted into 9 points using a 3-fold dilution in a 96 well plate. A 10× working stock solution of recombinant human IFN-gamma (final concentration of 10 ng/mL) was prepared in assay medium and used to prepare a 10× solution of test compound. 20 μL of 10×IFN-gamma and test compound (or DMSO control) was added to a 96-well plate. 160 μL of heparinized whole blood obtained from healthy donors was dispensed into individual wells of the 96-well plate and placed on a plate shaker (150 rpm) and incubated for 60 min at 37° C. in a CO2 incubator. Subsequently, 20 μL of L18-MDP (final concentration of 100 ng/mL) was added to the appropriate wells and further incubated for 16 hours on a plate shaker (150 rpm) at 37° C. in a CO2 incubator. The final concentration of DMSO was 0.05% (v/v) in all wells. After incubation, 100 μL of DPBS was added per well, mixed by shaking at 500 rpm for 2 minutes, followed by centrifugation (400×g for 10 minutes) and collection of supernatants. TNF-alpha in supernatants was measured using MSD immunoassay (MesoScale Discovery). 4-parametric curve fit was used to determine the test compound concentration that results in 50% reduction of TNF-alpha concentration in supernatant relative to assay controls.

human NOD2 signaling = assay: Inhibition of human NOD2 signaling in HEK-Blue-hNOD2 cells (L18-MDP stimulated, SEAP reporter); assay type: cell-based; conditions: NOD2 ligand stimulation, SEAP reporter, read-out: hNOD2 IC50
Procedure, shortened: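 HEK-Blue-hNOD2 cells (HEK293 with NOD2 and SEAP reporter), 12500/well, treated with 10-point 3-fold compound dilutions plus L18-MDP 0.5 ng/mL final, 24 h at 37 °C. Supernatant SEAP read with QUANTI-Blue after 3 h at 620 nm; IC50 by 4-parameter fit vs DMSO±L18-MDP controls.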

RIPK2 enzyme = molecular target: T2, RIPK2 enzyme (Homo sapiens, UniProt O43353); assay: RIPK2 inhibition (ADP-Glo Kinase Assay); assay type: biochemical; conditions: RIPK2 5 nM, ATP 150 μM, MBP substrate, read-out: RIPK2 IC50
T2 construct: purchased Carna 09-128
Procedure, shortened: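 Human RIPK2 (5 nM) preincubated with compound 30 min at room temperature in 50 mM HEPES pH 7.5, 10 mM MgCl2, 2 mM DTT, 1 mM EGTA, 0.01% Brij-35, 0.05% BSA; native swine MBP as substrate. ADP formed quantified by ADP-Glo luminescence; percent inhibition relative to DMSO and no-enzyme controls.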

[3] = Homo sapiens, HEK-Blue hNOD2, HEK-Blue-hNOD2 cells

T2 sequence (O43353 1-299 limits assumed): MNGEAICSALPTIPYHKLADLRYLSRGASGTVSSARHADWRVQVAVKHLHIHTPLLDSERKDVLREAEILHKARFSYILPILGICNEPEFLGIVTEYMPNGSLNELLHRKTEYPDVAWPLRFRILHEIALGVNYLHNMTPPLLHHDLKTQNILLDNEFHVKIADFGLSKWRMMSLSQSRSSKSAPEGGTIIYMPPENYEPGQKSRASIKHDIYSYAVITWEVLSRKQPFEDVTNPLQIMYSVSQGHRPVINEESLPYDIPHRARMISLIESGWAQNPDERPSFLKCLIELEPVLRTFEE
T1 sequence (O43353 whole entry, the tested form may be a part): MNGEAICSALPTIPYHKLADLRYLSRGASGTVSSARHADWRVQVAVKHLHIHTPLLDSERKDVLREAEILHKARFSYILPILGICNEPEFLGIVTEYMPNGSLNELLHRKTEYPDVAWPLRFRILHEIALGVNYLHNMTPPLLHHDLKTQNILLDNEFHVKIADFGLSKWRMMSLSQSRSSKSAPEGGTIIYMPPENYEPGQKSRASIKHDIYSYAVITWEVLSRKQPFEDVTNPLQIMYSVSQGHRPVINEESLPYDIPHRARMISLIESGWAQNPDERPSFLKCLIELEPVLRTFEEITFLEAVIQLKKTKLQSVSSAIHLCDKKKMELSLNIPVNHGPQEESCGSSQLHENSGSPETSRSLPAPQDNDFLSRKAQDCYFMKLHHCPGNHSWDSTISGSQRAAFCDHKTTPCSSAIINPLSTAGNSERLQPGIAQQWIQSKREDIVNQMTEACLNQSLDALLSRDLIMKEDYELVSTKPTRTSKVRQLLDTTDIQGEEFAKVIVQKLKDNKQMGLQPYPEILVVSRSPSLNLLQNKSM

Row | Compound | IC50 [1] [nM] | IC50 ([2]; Homo sapiens, 16 h) [nM] | IC50 (human NOD2 signaling; [3]) [nM] | IC50 (RIPK2 enzyme) [nM] | IC50 ([2]; 16 hours) [nM] | IC50 (human NOD2 signaling; HEK-Blue-hNOD2 cells) [nM]
1 | Cc1cc(CC(=O)Nc2nnc(C(C)(C)C)s2)c(F)cc1Oc1ccnc2ccc(S(C)(=O)=O)cc12 [Compound 443, N-(5-(tert-butyl)-1,3,4-thiadiazol-2-yl)-2-(2-fluoro-5-methyl-4-((6-(methylsulfonyl)quinolin-4-yl)oxy)phenyl) acetamide] | 11 | 83 | 1.1 | < 2.5 | – | –
2 | CN1CCC(Oc2ccc3ncnc(Oc4cnc(CC(=O)Nc5cnn(C(C)(C)C)c5)c(F)c4)c3c2)CC1 [Compound 20, N-(1-(tert-butyl)-1H-pyrazol-4-yl)-2-(3-fluoro-5-((6-((1-methylpiperidin-4-yl)oxy)quinazolin-4-yl)oxy)pyridin-2-yl)acetamide] | 144 | 12 | 21.7 | 10.4 | – | –
3 | Cc1c(Oc2ccnc3ccc(S(C)(=O)=O)cc23)cc(F)c(CC(=O)Nc2cnn(C(C)(C)C)c2)c1F [Compound 472, N-(1-(tert-butyl)-1H-pyrazol-4-yl)-2-(2,6-difluoro-3-methyl-4-((6-(methylsulfonyl)quinolin-4-yl)oxy)phenyl)acetamide] | 13.3 | 4.1 | 0.3 | < 2.5 | – | –
4 | Cc1cc(CC(=O)Nc2cnn(C(C)(C)C)c2)ccc1Oc1ncnc2ccc(OC3CCN(C)CC3)cc12 [Compound 84, N-(1-(tert-butyl)-1H-pyrazol-4-yl)-2-(3-methyl-4-((6-((1-methyl-piperidin-4-yl)oxy)quinazolin-4-yl)oxy)phenyl) acetamide] | 37 | – | – | 9.3 | 4 | 19.2
5 | [2H]C([2H])([2H])NC(=O)c1ccc2nccc(Oc3cc(F)c(CC(=O)Nc4cnn(C(C)(C)C)c4)cc3C)c2c1 [Compound 492, 4-(4-(2-((1-(tert-butyl)-1H-pyrazol-4-yl)amino)-2-oxoethyl)-5-fluoro-2-methylphenoxy)-N-(methyl-d3)quinoline-6-carboxamide] | 22 | 5.9 | 3.7 | < 2.5 | – | –
6 | CN1CCC(Oc2ccc3nccc(Oc4cnc(CC(=O)Nc5cnn(C(C)(C)C)c5)c(F)c4)c3c2)CC1 [Compound 78, N-(1-(tert-butyl)-1H-pyrazol-4-yl)-2-(3-fluoro-5-((6-((1-methylpiperidin-4-yl)oxy)quinolin-4-yl)oxy)pyridin-2-yl)acetamide] | 37 | 7 | 32.7 | 13.4 | – | –
7 | COc1ccc2ncnc(Oc3ccc(CC(=O)Nc4cnn(C(C)(C)C)c4)c(F)c3)c2c1 [Compound 8, N-(1-(tert-butyl)-1H-pyrazol-4-yl)-2-(2-fluoro-4-((6-methoxy-quinazolin-4-yl)oxy)phenyl) acetamide] | 6 | 103 | 11.4 | 7.6 | – | –
8 | CCS(=N)(=O)c1ccc2nccc(Oc3ccc(CC(=O)Nc4cnn(C(C)(C)C)c4)cc3C)c2c1 (single isomer, unassigned) [Compound 545, N-(1-(tert-butyl)-1H-pyrazol-4-yl)-2-(4-((6-(ethylsulfonimidoyl)quinolin-4-yl)oxy)-3-methylphenyl) acetamide] | 184 | 5.9 | 1.8 | < 2.5 | – | –
9 | Cc1cc(CC(=O)Nc2cnn(C(C)(C)C)c2)c(F)cc1Oc1ccnc2cc(F)c(C(N)=O)cc12 [Compound 465, 4-(4-(2-((1-(tert-butyl)-1H-pyrazol-4-yl)amino)-2-oxoethyl)-5-fluoro-2-methylphenoxy)-7-fluoroquinoline-6-carboxamide] | 4.2 | 2.6 | 0.2 | < 2.5 | – | –
10 | Cc1cc(CC(=O)Nc2cnn(C34CC(C3)C4)c2)ccc1Oc1ccnc2ccc(S(C)(=O)=O)cc12 [Compound 239, N-(1-(bicyclo[1.1.1]pentan-1-yl)-1H-pyrazol-4-yl)-2-(3-methyl-4-((6-(methylsulfonyl)quinolin-4-yl)oxy)phenyl)acetamide] | 20 | 37 | 2.9 | < 2.5 | – | –
11 | Cc1cc(CC(=O)Nc2cnn(C(C)(C)C)c2)ccc1Oc1ccnc2ccc(OC3CCN(C)CC3)cc12 [Compound 82, N-(1-(tert-butyl)-1H-pyrazol-4-yl)-2-(3-methyl-4-((6-((1-methyl-piperidin-4-yl)oxy)quinolin-4-yl)oxy)phenyl) acetamide] | 6 | – | – | < 2.5 | 4 | 1.9
12 | Cc1cc(C(C)C(=O)Nc2cnn(C(C)(C)C)c2)ccc1Oc1ccnc2ccc(S(C)(=O)=O)cc12 (single isomer, unassigned) [Compound 215, N-(1-(tert-butyl)-1H-pyrazol-4-yl)-2-(3-methyl-4-((6-(methylsulfonyl)quinolin-4-yl)oxy)phenyl)propanamide] | 39 | 55 | 3.2 | < 2.5 | – | –
13 | COc1cc2nccc(Oc3ccc(CC(=O)Nc4cnn(C(C)(C)C)c4)cc3C(F)F)c2cc1S(C)(=O)=O [Compound 413, N-(1-(tert-butyl)-1H-pyrazol-4-yl)-2-(3-(difluoromethyl)-4-((7-methoxy-6-(methylsulfonyl)quinolin-4-yl)oxy)phenyl) acetamide] | 27 | 13 | 2.5 | < 2.5 | – | –
14 | Cc1c(Oc2ccnc3ccc(S(=N)(=O)C4CC4)cc23)ccc(CC(=O)Nc2cnn(C(C)(C)C)c2)c1F (single isomer, unassigned) [Compound 441, N-(1-(tert-butyl)-1H-pyrazol-4-yl)-2-(4-((6-(cyclopropanesulfonimidoyl)quinolin-4-yl)oxy)-2-fluoro-3-methylphenyl)acetamide] | 8 | 6 | 0.2 | < 2.5 | – | –
15 | Cc1cc(CC(=O)Nc2cnn(C(C)(C)C)c2)ccc1Oc1ccnc2ccc(S(=N)(=O)C3CC3)cc12 (single isomer, unassigned) [Compound 544, N-(1-(tert-butyl)-1H-pyrazol-4-yl)-2-(4-((6-(cyclopropanesul-fonimidoyl)quinolin-4-yl)oxy)-3-methylphenyl) acetamide] | 123 | – | – | < 2.5 | 4.5 | 2
16 | CC(C)(C)n1cc(NC(=O)Cc2ccc(Oc3ccnc4ccc(S(C)(=O)=O)cc34)c(C(F)F)c2)cn1 [Compound 92, N-(1-(tert-butyl)-1H-pyrazol-4-yl)-2-(3-(difluoromethyl)-4-((6-(methylsulfonyl)quinolin-4-yl)oxy)phenyl)acetamide] | 132 | 40 | 6.6 | < 2.5 | – | –
17 | Cc1cc(CC(=O)Nc2cnn(C(C)(C)C)c2)ccc1Oc1ccnc2ccc(S(=N)(=O)C3CC3)cc12 (single isomer, unassigned) [Compound 543, N-(1-(tert-butyl)-1H-pyrazol-4-yl)-2-(4-((6-(cyclopropanesul-fonimidoyl)quinolin-4-yl)oxy)-3-methylphenyl) acetamide] | 77.5 | 3 | 1.2 | < 2.5 | – | –
18 | Cc1cc(CC(=O)Nc2cnn(C(C)(C)C)c2)cc(F)c1Oc1ccnc2ccc(C(N)=O)cc12 [Compound 468, 4-(4-(2-((1-(tert-butyl)-1H-pyrazol-4-yl)amino)-2-oxoethyl)-2-fluoro-6-methylphenoxy)quinoline-6-carboxamide] | 69.1 | 8.4 | 2.1 | < 2.5 | – | –
